Experimental data taken from publication PMC4979872, “Synthesis, fluorescence properties and the promising cytotoxicity of pyrene–derived aminophosphonates” (Beilstein Journal of Organic Chemistry, 2016).

Columns and labels:
[1] = system: HCT116 human colorectal carcinoma cell line; assay: MTT cytotoxicity assay on HCT116 cells; assay type: cell-based; settings: 24 h incubation, 5 to 600 µM, mean ± SEM of six experiments
From the text: (§1) The cytotoxic effects of dimethyl aminophosphonates 3Aa, 3Ab, 3Ac, 3Ad, 3Ai and dimethyl [hydroxy(pyren-1-yl)methyl]phosphonate (5A) were investigated with two human colorectal carcinoma cell lines: HT29 and HCT116 and also on the normal human lymphocytes. For this a standard MTT (3-(4,5-dimethylthiazol-2-yl)-2,5-diphenyltetrazolium bromide) test was used and results presented as IC50 values (i.e., the concentration of the compound that inhibits 50% growth). The activity of the tested compounds was studied in the concentration range from 5 to 600 µM. […]
(§2) 2.1. Materials and methods
(§3) MTT assay (3-(4,5-dimethylthiazol-2-yl)-2,5-diphenyltetrazolium bromide) facilitates the determination of the level of cell survival after the exposure of cells to potentially toxic substances. The cytotoxicity level of studied compounds was evaluated by determining the dose or concentration that induces a standard biological response. The assessment of the cytotoxic activity of the tested compounds was carried out based on IC50 values – the concentration of the compound which causes inhibition of cell proliferation by 50% as compared to the negative control. To determine the above concentration, was created graphs of cell viability expressed in percentages, depending on the concentrations of studied […]
(§4) MTT (3(4,5-dimethylthiazol-2-yl)-2,5-diphenyltetrazolium bromide), lauryl sulfate (SLS), N,N-dimethylformamide (DMF), dimethyl sulfoxide (DMSO), penicillin-streptomycin solution stabilized, MEM non-essential amino acids solution, Histopaque 1077, and buffered saline (PBS) were purchased from Sigma Chemical Co. Foetal bovine serum (FBS), phytohemagglutinin (PHA), RPMI 1640 medium and Trypsin-EDTA were supplied by […]
(§5) All other chemicals (chemical reagents, substrates, and solvents) were of the highest commercial grade available and were purchased from CytoGen and Sigma–Aldrich. […]
(§6) The human colorectal carcinoma cell line (HCT116) and the human colorectal adenocarcinoma cell line (HT29) were obtained from the American Type Culture Collection (ATCC, Rockville, USA). The HCT116 cells were cultured in RPMI 1640 supplemented with FBS (10%) and antibiotics (1%): penicillin and streptomycin. The HT29 cells were cultured in RPMI 1640 medium supplemented with FBS (10%), antibiotics (1%): penicillin and streptomycin, and MEM non-essential amino acids solution (1%). The lymphocytes, HCT116 and HT29 cells were cultured at 37 °C in a humidified atmosphere of 95% air and 5% CO2.
(§7) A MTT assay was used to assess cell survival after treatment with studied compounds. The MTT assay is a quantitative colorimetric method to determine cell proliferation after treatment with the tested compounds. It is widely used to estimate the cytotoxic effect of chemicals on different types of cells. MTT (3(4,5-dimethyl-2-thiazolyl)-2,5-diphenyl-2H-tetrazolium bromide) is a water-soluble tetrazolium salt, which is converted into an insoluble purple formazan by cleavage of the tertazolium ring by succinate dehydrogenase within the mitochondria. The formazan product is impermeable to the cell membranes and therefore it accumulates in living cells. The purple crystals were extracted into a solution for homogeneous staining and the absorbance was read on a spectrophotometer at 595 nm. The percent reduction of MTT was compared to controls (cells not exposed to tested compounds), which represented 100% MTT reduction. The assay was optimized for the cell lines and chemical compounds used in the experiments.
(§8) The cancer cells and human lymphocytes were grown for 24 h on 96-well plates at a density of 6–8 × 10^3 cells/well and 8 × 10^5 cells/well, respectively. Then the cells were treated with the tested compounds for 24 h incubation periods in a volume of 50 μl per well for the lymphocytes and 100 μl per well for the HCT116, HT29 cells. Subsequently, a fresh MTT solution (lymphocytes, HCT116 and HT29: 20 μl, 5 mg/ml in sterile PBS) was added to each […]
(§9) well for the next 4 h. […]

normal human lymphocytes = assay: MTT cytotoxicity assay on normal human lymphocytes; assay type: cell-based; settings: 24 h incubation, 5 to 600 µM, mean ± SEM of six experiments
From the text: as §1, §2, §3, §4
All other chemicals (chemical reagents, substrates, and solvents) were of the highest commercial grade available and were purchased from CytoGen and Sigma–Aldrich.
Lymphocytes were isolated from the peripheral blood of healthy, non-smoking donors of both sexes by centrifugation in a density gradient of Histopaque 1077 (15 min., 300 × g) (blood was obtained from the Blood Donation Center in Lodz, Poland). The cells were suspended in the culture medium containing RPMI 1640, inactivated FBS (15%), penicillin and streptomycin (1%) and PHA (1%). […]
The lymphocytes, HCT116 […]
and HT29 cells were cultured at 37 °C in a humidified atmosphere of 95% air and 5% CO2.
as §7
as §8, with “each well for the next 4 h. Purple crystals forming in the cancer cells after the reduction of MTT were dissolved by DMSO (100 μl/well). In the case of lymphocytes this was achieved by” for “each”

[2] = system: HT29 human colorectal adenocarcinoma cell line; assay: MTT cytotoxicity assay on HT29 cells; assay type: cell-based; settings: 24 h incubation, 5 to 600 µM, mean ± SEM of six experiments
From the text: as §1, §2, §3, §4, §5, §6, §7, §8, §9

**Q.** For `COP(=O)(OC)C(O)c1ccc2ccc3cccc4ccc1c2c34` (centres unmarked) [Compound 5A, dimethyl hydroxy(pyren-1-yl)methylphosphonate], which IC50 ([1]; Homo sapiens, HCT-116, 24 h) is on record?
**A.** The IC50 was 40.4 µM.

**Q.** And the IC50 (normal human lymphocytes; Homo sapiens, Lymphocyte, 24 h)?
**A.** Its IC50 is 136 µM.

**Q.** And the IC50 ([2]; Homo sapiens, HT-29, 24 h)?
**A.** The IC50 was 25.8 µM.

**Q.** Which melting point does the source give for `O=P(OCc1ccccc1)(OCc1ccccc1)C(NCc1ccccc1)c1ccc2ccc3cccc4ccc1c2c34` (centres unmarked) here?
**A.** Its melting point is 100 to 101 °C.

**Q.** Which IC50 ([1]; Homo sapiens, HCT-116, 24 h) does the source give for `COP(=O)(OC)C(Nc1ccc(C)cc1)c1ccc2ccc3cccc4ccc1c2c34` (centres unmarked) [Compound 3Ac, dimethyl N-(4-methylphenyl)amino(pyren-1-yl)methylphosphonate] here?
**A.** Its IC50 is 15.9 µM.

**Q.** And the IC50 (normal human lymphocytes; Homo sapiens, Lymphocyte, 24 h)?
**A.** Its IC50 is 17.5 µM.

**Q.** What about the IC50 ([2]; Homo sapiens, HT-29, 24 h) of the same compound?
**A.** The IC50 was 15.8 µM.

**Q.** For `COP(=O)(OC)C(Nc1ccccc1)c1ccc2ccc3cccc4ccc1c2c34` (centres unmarked) [Compound 3Ab], which IC50 ([1]; Homo sapiens, HCT-116, 24 h) is on record?
**A.** The IC50 was 70.8 µM.

**Q.** And the melting point?
**A.** Its melting point is 203 to 204 °C.

**Q.** And the IC50 (normal human lymphocytes; Homo sapiens, Lymphocyte, 24 h)?
**A.** Its IC50 is 334 µM.

**Q.** What about the IC50 ([2]; Homo sapiens, HT-29, 24 h) of the same compound?
**A.** The IC50 was 106 µM.

**Q.** Which results are given for `COP(=O)(OC)C(Nc1cccc(C)c1)c1ccc2ccc3cccc4ccc1c2c34` (centres unmarked) [Compound 3Ai, dimethyl N-(m-methylphenyl)amino(pyren-1-yl)methylphosphonate]?
**A.** IC50 ([1]; Homo sapiens, HCT-116, 24 h): 20.2 µM; melting point: 209 to 210 °C; IC50 (normal human lymphocytes; Homo sapiens, Lymphocyte, 24 h): 75.8 µM; IC50 ([2]; Homo sapiens, HT-29, 24 h): 57.5 µM

**Q.** Which results are given for `COc1ccc(NC(c2ccc3ccc4cccc5ccc2c3c45)P(=O)(OC)OC)cc1` (centres unmarked) [Compound 3Ad, dimethyl N-(4-methoxyphenyl)amino(pyren-1-yl)methylphosphonate]?
**A.** IC50 [1]: 20.8 µM; IC50 ([1]; Homo sapiens, HCT-116, 24 h): ~20 µM; IC50 (normal human lymphocytes): 231 µM; IC50 (normal human lymphocytes; Homo sapiens, Lymphocyte, 24 h): ~230 µM; IC50 [2]: 24.2 µM; IC50 ([2]; Homo sapiens, HT-29, 24 h): ~20 µM

**Q.** Which IC50 ([1]; Homo sapiens, HCT-116, 24 h) does the source give for `Cc1ccc(NC(c2ccc3ccc4cccc5ccc2c3c45)P(=O)(O)O)cc1` (centres unmarked) [Compound 4c] here?
**A.** The IC50 was ~15 µM.

**Q.** What about the melting point of the same compound?
**A.** Its melting point is 210 to 211 °C.

**Q.** And the IC50 (normal human lymphocytes; Homo sapiens, Lymphocyte, 24 h)?
**A.** Its IC50 is ~17 µM.

**Q.** And the IC50 ([2]; Homo sapiens, HT-29, 24 h)?
**A.** The IC50 was ~15 µM.

**Q.** With `O=P(O)(O)C(NCc1ccccc1)c1ccc2ccc3cccc4ccc1c2c34` (centres unmarked) as the compound, how does the melting point read?
**A.** Its melting point is 235 to 236 °C.

**Q.** Which IC50 ([1]; Homo sapiens, HCT-116, 24 h) does the source give for `COP(=O)(OC)C(NCc1ccccc1)c1ccc2ccc3cccc4ccc1c2c34` (centres unmarked) [Compound 3Aa] here?
**A.** Its IC50 is 29 µM.

**Q.** And the IC50 (normal human lymphocytes; Homo sapiens, Lymphocyte, 24 h)?
**A.** Its IC50 is 89.2 µM.

**Q.** And the IC50 ([2]; Homo sapiens, HT-29, 24 h)?
**A.** Its IC50 is 29.2 µM.
